Data taken from PubChem BioAssay AID493002 (Sanford-Burnham Center for Chemical Genomics, 2010).

Test system: S. cerevisiae tim23-1 mutant growth, luminescence
Assay: potency against tim23-1 yeast growth – luminescence, uHTS hits, dose response (AID 493002);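 further: yeast grown roughly 22 hours at 25 °C before the luminescence read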

| Structure (SMILES) | IC50 [µM] |
| --- | --- |
| O=C(Nc1ccc(Oc2cccc3ccccc23)cc1)c1ccco1 | 8.33 |
| Cc1csc2nc(O)c(C(=O)NCCCc3ccccc3)c(=O)n12 | 7.87 |
| O=c1/c(=C/c2cccc3ccccc23)sc2ncnn12 | 7.13 |
| Cc1ccc(O)c(C(=O)c2cnn(C(=O)Cc3csc(C)n3)c2)c1 | 12.4 |
| CC1CCc2c(c3ccccc3n2C(=O)CCl)C1 (stereo not drawn) | 3.68 |
| Cn1nc(C(F)(F)F)c2cc(NC(=O)OCC(C)(C)C)sc21 | 28.2 |
| COc1ccc(N2CCC(CNC(=S)Nc3ccc(C)cc3C)C2)cc1 (stereo not drawn) | 7.54 |
| Cc1ccc(Nc2nc3ccccc3s2)c(C)c1 | 11.1 |
| COc1ccc(-c2cccc(NC(=O)c3cccs3)c2)nn1 | 14.2 |
| Cc1ccccc1[C@@]1(C)ON(c2ccccc2C(F)(F)F)C1=O | 7.04 |
| C/C(=N\Nc1ccc([N+](=O)[O-])cc1)c1ccc(O)cc1 | 5.17 |
| Cc1cccc(C)c1N1C(=O)CN(Cc2ccccc2)C1=S | 28.1 |
| Cn1c(C=O)c(C#Cc2ccccc2)c2ccccc21 | 6.21 |
| O=C(/C=C/c1ccco1)Nc1scc(-c2ccccc2)c1C(=O)O | 13.6 |
| O=c1oc(Cl)c(Cl)c2ccccc12 | 3.83 |
| COc1ccc(C(=O)N2CCc3ccc(NC(=O)c4ccccn4)cc3C2)cc1F | 23.8 |
| Cc1ccc(-c2nc3ccccc3[nH]2)s1 | 6.19 |
| COC(=O)c1ccc(-c2ccc(C(c3c(C)[nH][nH]c3=O)c3c(C)[nH][nH]c3=O)o2)cc1 | 11.2 |
| Cc1nc2scc(C)n2c(=O)c1S(=O)(=O)Nc1ccc(OC(F)(F)F)cc1 | 6.96 |
| CCC(C)c1ccc(NC(=O)C2CC3CCC2C3)cc1 (stereo not drawn) | 12.5 |
| O=c1c2ccccc2nc(-c2ccc([N+](=O)[O-])cc2)n1O | 7.67 |

| Structure (SMILES) | IC50 [µM] |
| --- | --- |
| O=C(N/N=C/c1ccc(Br)s1)c1cccs1 | 9.05 |
| Cc1ccc2[nH]c3ccccc3c(=O)c2c1 | 13.6 |
| Cc1cc2cc(CNC(=O)c3ccc(C)c([N+](=O)[O-])c3)ccc2[nH]1 | 9.14 |
| CCc1ccc(NC(=O)/C(C#N)=C/c2ccncc2)cc1 | 4.41 |
| O=C(/C=C/c1ccccc1Cl)Nc1ccccc1 | 12.2 |
| Cc1ccc(-c2nc3n(n2)Cc2ccccc2-3)cc1 | 15.4 |
| COc1ccc(C(=O)N/N=C\c2coc3ccccc3c2=O)cc1 | 13.7 |
| N#C/C(=C\c1c[nH]c2ccccc12)C(=O)NC1CCCC1 | 31.5 |
| CCc1ccc2oc(-c3cc(N)ccc3Cl)nc2c1 | 6.18 |
| O=c1c(O)c(-c2ccccc2)oc2cc(O)cc(O)c12 | 8.56 |
| Cc1cc(C(=O)COC(=O)c2ccc([N+](=O)[O-])o2)c(C)n1CC1CCCO1 (stereo not drawn) | 10.1 |
| O=C(N/N=C/C(Br)=C/c1ccccc1)c1ccccc1F | 12.3 |
| C/C(=N\Nc1nc2ccccc2s1)c1cccs1 | 9.27 |
| O=c1c2ccccc2nc2c3ccccc3cnn12 | 15 |
| CC(=O)c1sc(-c2ccc(Cl)cc2)cc1N | 18.8 |
| Cc1ccc(C(=O)NC(=S)NCc2ccccc2)cc1 | 12.1 |
| O=Cc1cccnc1SCc1ccccc1 | 12.6 |
| O=c1oc(-c2ccccc2F)nc2c1cnn2-c1ccccc1 | 7.71 |
| COC(=O)c1c(-c2ccc(S(C)(=O)=O)cc2)sc2ccc(OC)cc12 | 12 |
| CCC(=O)OCC(=O)[C@@]1(OC(=O)CC)[C@@H](C)C[C@H]2[C@@H]3CCC4=CC(=O)C=C[C@]4(C)[C@@]3(Cl)[C@@H](O)C[C@@]21C | 14.9 |
| CCCC(=O)NC(c1ccc(C(C)C)cc1)c1ccc2cccnc2c1O (stereo not drawn) | 7.2 |

| Structure (SMILES) | IC50 [µM] |
| --- | --- |
| CC(C)OC(=O)c1cccnc1SCc1cc(=O)n2ccccc2n1 | 9.68 |
| O=[N+]([O-])c1cc(O)c2ncccc2c1 | 11.4 |
| O=S1(=O)N[C@@H](Cc2ccccc2)COc2cc(Br)ccc21 | 18.4 |
| COc1ccc(Nc2nc(N)c([N+](=O)[O-])c(NC3CCCCC3)n2)cc1 | 13.6 |
| O=c1oc(-c2ccc(Br)o2)nc2ccccc12 | 9.8 |
| CCc1sc(C(=O)Nc2ccc3c(c2)OCO3)cc1C | 19.2 |
| O=C1/C(=C/c2cccs2)COc2ccccc21 | 8.37 |
| CO/C(N)=C(\C#N)N=Cc1ccccc1Cl | 8.6 |
| Cc1cnc(NC(=O)c2sc(Nc3ccccc3)nc2N)o1 | 9.39 |
| Cc1nc(-c2ccc(NC(=O)c3ccccc3)cc2)cs1 | 13 |
| CSc1nnc(C)c(/C=C/NOCc2ccc(Cl)cc2)n1 | 6.13 |
| COc1ccc2c(C(=O)CCl)c[nH]c2c1 | 22.5 |
| CCOC(=O)CSc1c(-c2cccs2)[nH]c2ccccc12 | 15.2 |
| Cc1ccc(-c2nnc(NC3CCCC3)s2)cc1 | 26.6 |
| O=C(Nc1cccc(NC(=O)c2ccco2)c1)c1cccc(Br)c1 | 13.1 |
| C[C@@]12C(=O)Nc3ccc(Cl)cc3C(=O)N1[C@H]1c3ccccc3OC[C@@H]1[C@@H]2c1ccccc1 | 3.38 |
| O=C(N/N=C/C(Br)=C/c1ccccc1)c1cccs1 | 6.9 |
| COc1ccc(OCC(=O)Nc2ccc3c(c2)CCC3)cc1 | 15.6 |
| Clc1nssc1=Nc1nncs1 | 3.05 |
| COc1cc(OC)cc(C(=O)Nc2ccc(Nc3ccccc3)cc2)c1 | 9.92 |
| Cc1ccc2[nH]cc(C(=O)CCl)c2c1 | 6.02 |
